Measured values reported in patent US20250302080A1, “SWEETNESS AND/OR FLAVOR ENHANCER” (AJINOMOTO CO., INC., priority 2022, published 2025).

Assays:
[1] = Sensory evaluation of sweetness intensity in RebM solution (Experimental Examples 20-21)
Description: A negative control RebM solution (0.063 wt % RebM solution) was prepared by dissolving RebM in filtered water.
(§1) A sensory evaluation of sweetness intensity was performed for each sample by a panel of four experts according to the following evaluation criteria.
(§2) Sweetness intensity was evaluated by 0.0 to 10.0 points based on the following reference samples (negative control (hereinafter referred to as NC) (0.0 point); reference 1 (hereinafter referred to as R1) (3.0 points), reference 2 (hereinafter referred to as R2) (5.0 points); reference 3 (hereinafter referred to as R3) (10.0 points)). The average score (rounded to two decimal places) of each expert panelist was calculated. An average score of 3.0 points or more was considered to be functional. • NC (0.0 point): 0.063 wt % RebM solution (solvent: filtered water) • R1 (3.0 points): 0.063 wt % RebM solution (solvent: filtered water)+dodecanoic acid (1 ppb) • R2 (5.0 points): 0.066 wt % RebM solution (solvent: filtered water) • R3 (10.0 points): 0.069 wt % RebM solution (solvent: filtered water)
A sensory evaluation of sweetness intensity was performed for each sample by a panel of four experts according to the same evaluation criteria as in Experimental Example 20.

[2] = Sensory evaluation of sweetness intensity in aspartame solution, four reference samples (Experimental Example 22)
Description: A negative control aspartame solution (0.063 wt % aspartame solution) was prepared by dissolving aspartame in filtered water.
as §1
as §2, with “to 10.0 point based on” for “to 10.0 points based on”, “as R1) (3.2 points), reference” for “as R1) (3.0 points), reference”, “wt % aspartame solution (solvent:” for “wt % RebM solution (solvent:”, “• R1 (3.2 points): 0.063” for “• R1 (3.0 points): 0.063”, “(solvent: filtered water)+decanoic acid (10” for “(solvent: filtered water)+dodecanoic acid (1”, “water)+decanoic acid (10 ppb) •” for “water)+dodecanoic acid (1 ppb) •”

[3] = Sensory evaluation of sweetness intensity in sucralose solution (Experimental Examples 23-24); details: for sweetness intensity: average score
Description: A negative control sucralose solution (0.0140 wt % sucralose solution) was prepared by dissolving sucralose in filtered water.
as §1
Sweetness intensity was evaluated by 0.0 to 10.0 point based on the following reference samples (negative control (hereinafter referred to as NC) (0.0 point); reference 1 (hereinafter referred to as R1) (3.0 points), reference 2 (hereinafter referred to as R2) (5.0 points); reference 3 (hereinafter referred to as R3) (10.0 points)). The average score (rounded to two decimal places) of each expert panelist was calculated. An average score of 3.0 points or more was considered to be functional. • NC (0.0 point): 0.0140 wt % sucralose solution (solvent: filtered water) • R1 (3.0 points): 0.0164 wt % sucralose solution (solvent: filtered water) • R2 (5.0 points): 0.0180 wt % sucralose solution (solvent: filtered water) • R3 (10.0 points): 0.0220 wt % sucralose solution (solvent: filtered water)
A sensory evaluation of sweetness intensity was performed for each sample by a panel of four experts according to the same evaluation criteria as in Experimental Example 23.

[4] = Sensory evaluation of sweetness intensity in RebA solution, four reference samples (Experimental Examples 17-19); details: for concentration at which a sweetness-enhancing effect was confirmed: added alone, 3.0 points or more
Description: A negative control RebA solution (0.073 wt % RebA solution) was prepared by dissolving RebA in filtered water.
as §1
Sweetness intensity was evaluated by 0.0 to 10.0 points based on the following reference samples (negative control (hereinafter referred to as NC) (0.0 point); reference 1 (hereinafter referred to as R1) (3.2 points), reference 2 (hereinafter referred to as R2) (5.0 points); reference 3 (hereinafter referred to as R3) (10.0 points)). The average score (rounded to two decimal places) of each expert panelist was calculated. An average score of 3.0 points or more was considered to be functional. • NC (0.0 point): 0.073 wt % RebA solution (solvent: filtered water) • R1 (3.2 points): 0.073 wt % RebA solution (solvent: filtered water)+decanoic acid (10 ppb) • R2 (5.0 points): 0.077 wt % RebA solution (solvent: filtered water) • R3 (10.0 points): 0.080 wt % RebA solution (solvent: filtered water)
A sensory evaluation of sweetness intensity was performed for each sample by a panel of four experts according to the same evaluation criteria as in Experimental Example 17.

[5] = added alone at 0.001 ppb to 0.0140 wt % sucralose solution
[6] = added alone at 0.01 ppb to 0.0140 wt % sucralose solution
[7] = added alone at 0.1 ppb to 0.0140 wt % sucralose solution
[8] = added alone at 1 ppb to 0.0140 wt % sucralose solution
[9] = added alone at 10 ppb to 0.0140 wt % sucralose solution
[10] = added alone at 100 ppb to 0.0140 wt % sucralose solution
[11] = added alone at 1000 ppb to 0.0140 wt % sucralose solution
[12] = added alone at 10000 ppb to 0.0140 wt % sucralose solution

CCCCCCCCC(=O)O [nonanoic acid]
sweetness intensity ([1]; acid added alone at 0.001 ppb): 0.9 points
sweetness intensity ([1]; acid added alone at 0.01 ppb): 1.4 points
sweetness intensity ([1]; acid added alone at 0.1 ppb): 2.1 points
sweetness intensity ([1]; acid added alone at 1 ppb): 2.8 points
sweetness intensity ([1]; acid added alone at 10 ppb): 3.3 points
sweetness intensity ([1]; acid added alone at 100 ppb): 4.1 points
sweetness intensity ([1]; acid added alone at 1000 ppb): 4.8 points
sweetness intensity ([1]; acid added alone at 10000 ppb): 4.8 points
sweetness intensity ([2]; acid added alone at 0.001 ppb): 0.8 points
sweetness intensity ([2]; acid added alone at 0.01 ppb): 2.0 points
sweetness intensity ([2]; acid added alone at 0.1 ppb): 2.7 points
sweetness intensity ([2]; acid added alone at 1 ppb): 3.4 points
sweetness intensity ([2]; acid added alone at 10 ppb): 4.5 points
sweetness intensity ([2]; acid added alone at 100 ppb): 4.9 points
sweetness intensity ([2]; acid added alone at 1000 ppb): 5.4 points
sweetness intensity ([2]; acid added alone at 10000 ppb): 5.9 points
sweetness intensity [3, 5]: 1.3 points
sweetness intensity [3, 6]: 1.8 points
sweetness intensity [3, 7]: 2.4 points
sweetness intensity [3, 8]: 3.0 points
sweetness intensity [3, 9]: 3.5 points
sweetness intensity [3, 10]: 3.9 points
sweetness intensity [3, 11]: 4.3 points
sweetness intensity [3, 12]: 4.2 points
concentration at which a sweetness-enhancing effect was confirmed ([3]; sucralose solution, added alone, 3.0 points or more): ≥ 1 ppb
sweetness intensity ([4]; acid added alone at 0.001 ppb): 0.7 points
sweetness intensity ([4]; acid added alone at 0.01 ppb): 1.0 points
sweetness intensity ([4]; acid added alone at 0.1 ppb): 1.8 points
sweetness intensity ([4]; acid added alone at 1 ppb): 2.8 points
sweetness intensity ([4]; acid added alone at 10 ppb): 3.3 points
sweetness intensity ([4]; acid added alone at 100 ppb): 4.0 points
sweetness intensity ([4]; acid added alone at 1000 ppb): 4.8 points
sweetness intensity ([4]; acid added alone at 10000 ppb): 4.4 points
concentration at which a sweetness-enhancing effect was confirmed [4]: ≥ 10 ppb

CCCCCCCC(=O)O [octanoic acid]
sweetness intensity ([1]; acid added alone at 0.001 ppb): 1.1 points
sweetness intensity ([1]; acid added alone at 0.01 ppb): 1.8 points
sweetness intensity ([1]; acid added alone at 0.1 ppb): 2.7 points
sweetness intensity ([1]; acid added alone at 1 ppb): 3.3 points
sweetness intensity ([1]; acid added alone at 10 ppb): 4.3 points
sweetness intensity ([1]; acid added alone at 100 ppb): 4.3 points
sweetness intensity ([1]; acid added alone at 1000 ppb): 4.4 points
sweetness intensity ([1]; acid added alone at 10000 ppb): 4.3 points
sweetness intensity ([2]; acid added alone at 0.001 ppb): 0.6 points
sweetness intensity ([2]; acid added alone at 0.01 ppb): 1.4 points
sweetness intensity ([2]; acid added alone at 0.1 ppb): 2.2 points
sweetness intensity ([2]; acid added alone at 1 ppb): 2.9 points
sweetness intensity ([2]; acid added alone at 10 ppb): 3.4 points
sweetness intensity ([2]; acid added alone at 100 ppb): 3.9 points
sweetness intensity ([2]; acid added alone at 1000 ppb): 4.3 points
sweetness intensity ([2]; acid added alone at 10000 ppb): 4.6 points
concentration at which a sweetness-enhancing effect was confirmed ([2]; added alone, 3.0 points or more): ≥ 10 ppb
sweetness intensity [3, 5]: 0.5 points
sweetness intensity [3, 6]: 1.3 points
sweetness intensity [3, 7]: 1.8 points
sweetness intensity [3, 8]: 2.3 points
sweetness intensity [3, 9]: 2.9 points
sweetness intensity [3, 10]: 3.3 points
sweetness intensity [3, 11]: 4.0 points
sweetness intensity [3, 12]: 4.5 points
sweetness intensity ([4]; acid added alone at 0.001 ppb): 0.3 points
sweetness intensity ([4]; acid added alone at 0.01 ppb): 0.4 points
sweetness intensity ([4]; acid added alone at 0.1 ppb): 0.9 points
sweetness intensity ([4]; acid added alone at 1 ppb): 1.3 points
sweetness intensity ([4]; acid added alone at 10 ppb): 2.0 points
sweetness intensity ([4]; acid added alone at 100 ppb): 2.6 points
sweetness intensity ([4]; acid added alone at 1000 ppb): 3.7 points
sweetness intensity ([4]; acid added alone at 10000 ppb): 4.0 points
concentration at which a sweetness-enhancing effect was confirmed [4]: ≥ 1000 ppb

CCCCCCCCCCC(=O)O [undecanoic acid]
sweetness intensity ([1]; acid added alone at 0.001 ppb): 1.3 points
sweetness intensity ([1]; acid added alone at 0.01 ppb): 2.0 points
sweetness intensity ([1]; acid added alone at 0.1 ppb): 2.4 points
sweetness intensity ([1]; acid added alone at 1 ppb): 2.9 points
sweetness intensity ([1]; acid added alone at 10 ppb): 3.3 points
sweetness intensity ([1]; acid added alone at 100 ppb): 3.9 points
sweetness intensity ([1]; acid added alone at 1000 ppb): 4.4 points
sweetness intensity ([1]; acid added alone at 10000 ppb): 4.1 points
sweetness intensity ([2]; acid added alone at 0.001 ppb): 1.3 points
sweetness intensity ([2]; acid added alone at 0.01 ppb): 2.1 points
sweetness intensity ([2]; acid added alone at 0.1 ppb): 2.8 points
sweetness intensity ([2]; acid added alone at 1 ppb): 3.2 points
sweetness intensity ([2]; acid added alone at 10 ppb): 3.8 points
sweetness intensity ([2]; acid added alone at 100 ppb): 4.1 points
sweetness intensity ([2]; acid added alone at 1000 ppb): 4.7 points
sweetness intensity ([2]; acid added alone at 10000 ppb): 5.5 points
sweetness intensity [3, 5]: 0.9 points
sweetness intensity [3, 6]: 1.3 points
sweetness intensity [3, 7]: 1.7 points
sweetness intensity [3, 8]: 2.1 points
sweetness intensity [3, 9]: 2.8 points
sweetness intensity [3, 10]: 3.1 points
sweetness intensity [3, 11]: 3.4 points
sweetness intensity [3, 12]: 3.2 points
sweetness intensity ([4]; acid added alone at 0.001 ppb): 0.3 points
sweetness intensity ([4]; acid added alone at 0.01 ppb): 1.9 points
sweetness intensity ([4]; acid added alone at 0.1 ppb): 3.5 points
sweetness intensity ([4]; acid added alone at 1 ppb): 4.5 points
sweetness intensity ([4]; acid added alone at 10 ppb): 5.4 points
sweetness intensity ([4]; acid added alone at 100 ppb): 6.0 points
sweetness intensity ([4]; acid added alone at 1000 ppb): 6.2 points
sweetness intensity ([4]; acid added alone at 10000 ppb): 5.7 points
concentration at which a sweetness-enhancing effect was confirmed [4]: ≥ 0.1 ppb
